The values below come from BindingDB's records for doi:10.1016/s1388-1981(99)00164-x (Merck Frosst Centre For Therapeutic Research, 2000).

As usually defined, the Ki is the equilibrium dissociation constant of an inhibitor or competing ligand from its target. Read a high Ki as weaker binding.

Assay [1] deals with T1, Prostaglandin E2 receptor EP1 subtype (Homo sapiens, UniProt P34995).
T1 sequence (P34995 whole entry): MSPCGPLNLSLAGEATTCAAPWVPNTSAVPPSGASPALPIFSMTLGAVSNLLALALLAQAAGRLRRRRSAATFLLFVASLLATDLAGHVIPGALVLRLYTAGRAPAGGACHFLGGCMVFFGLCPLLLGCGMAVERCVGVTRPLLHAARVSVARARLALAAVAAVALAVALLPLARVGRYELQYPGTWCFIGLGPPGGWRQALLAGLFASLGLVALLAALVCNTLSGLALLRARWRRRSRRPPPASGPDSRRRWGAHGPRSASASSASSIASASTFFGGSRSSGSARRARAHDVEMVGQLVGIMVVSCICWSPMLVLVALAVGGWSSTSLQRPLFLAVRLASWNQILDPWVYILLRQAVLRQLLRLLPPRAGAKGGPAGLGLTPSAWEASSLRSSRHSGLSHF

The target of assay [2] is Solute carrier organic anion transporter family member 2A1 (Homo sapiens, UniProt Q92959).
The target in assay [3] is Prostaglandin E2 receptor EP2 subtype (Homo sapiens, UniProt P43116).
The next assay has as its target Prostacyclin receptor (Homo sapiens, UniProt P43119).
Assay [4] concerns the target Prostaglandin F2-alpha receptor (Human, UniProt P43088).
Assay [5] has as its target Prostaglandin E2 receptor EP4 subtype (Homo sapiens, UniProt P35408).
In assay [6] the target is T2, Prostaglandin D2 receptor (Homo sapiens, UniProt Q13258).
T2 sequence (Q13258 whole entry): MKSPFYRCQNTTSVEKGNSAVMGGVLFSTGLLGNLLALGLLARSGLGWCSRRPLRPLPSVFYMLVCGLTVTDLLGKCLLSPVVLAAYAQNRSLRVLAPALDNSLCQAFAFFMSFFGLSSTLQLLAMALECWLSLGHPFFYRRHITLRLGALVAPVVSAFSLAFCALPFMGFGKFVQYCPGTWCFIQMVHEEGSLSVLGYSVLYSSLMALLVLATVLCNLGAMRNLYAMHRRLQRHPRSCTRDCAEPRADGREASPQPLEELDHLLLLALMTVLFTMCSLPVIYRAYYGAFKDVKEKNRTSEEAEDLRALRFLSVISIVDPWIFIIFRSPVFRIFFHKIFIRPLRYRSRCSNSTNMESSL

For assay [7], the target named is T3, Prostaglandin E2 receptor EP3 subtype (Homo sapiens, UniProt P43115).
T3 sequence (P43115 whole entry): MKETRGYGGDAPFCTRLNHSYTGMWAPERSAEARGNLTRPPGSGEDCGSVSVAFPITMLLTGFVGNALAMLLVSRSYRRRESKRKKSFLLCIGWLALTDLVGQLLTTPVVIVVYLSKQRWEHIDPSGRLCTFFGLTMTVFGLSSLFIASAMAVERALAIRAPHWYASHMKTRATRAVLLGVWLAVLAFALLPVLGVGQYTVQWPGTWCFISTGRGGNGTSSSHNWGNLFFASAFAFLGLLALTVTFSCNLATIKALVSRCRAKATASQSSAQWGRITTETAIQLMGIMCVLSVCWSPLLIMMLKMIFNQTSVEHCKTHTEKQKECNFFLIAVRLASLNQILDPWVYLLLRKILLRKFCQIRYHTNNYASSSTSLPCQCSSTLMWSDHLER

Sequence of Prostaglandin E2 receptor EP2 subtype (P43116 whole entry): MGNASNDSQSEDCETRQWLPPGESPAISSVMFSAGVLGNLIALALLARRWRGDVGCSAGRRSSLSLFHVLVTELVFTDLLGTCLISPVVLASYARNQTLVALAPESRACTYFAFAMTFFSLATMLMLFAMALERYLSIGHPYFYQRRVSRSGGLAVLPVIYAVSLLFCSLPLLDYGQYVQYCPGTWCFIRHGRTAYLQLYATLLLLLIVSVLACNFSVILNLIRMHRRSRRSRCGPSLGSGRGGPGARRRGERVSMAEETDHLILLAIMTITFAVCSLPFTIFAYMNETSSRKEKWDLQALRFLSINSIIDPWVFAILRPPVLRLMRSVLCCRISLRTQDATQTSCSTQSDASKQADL
Sequence of Prostaglandin E2 receptor EP4 subtype (P35408 whole entry): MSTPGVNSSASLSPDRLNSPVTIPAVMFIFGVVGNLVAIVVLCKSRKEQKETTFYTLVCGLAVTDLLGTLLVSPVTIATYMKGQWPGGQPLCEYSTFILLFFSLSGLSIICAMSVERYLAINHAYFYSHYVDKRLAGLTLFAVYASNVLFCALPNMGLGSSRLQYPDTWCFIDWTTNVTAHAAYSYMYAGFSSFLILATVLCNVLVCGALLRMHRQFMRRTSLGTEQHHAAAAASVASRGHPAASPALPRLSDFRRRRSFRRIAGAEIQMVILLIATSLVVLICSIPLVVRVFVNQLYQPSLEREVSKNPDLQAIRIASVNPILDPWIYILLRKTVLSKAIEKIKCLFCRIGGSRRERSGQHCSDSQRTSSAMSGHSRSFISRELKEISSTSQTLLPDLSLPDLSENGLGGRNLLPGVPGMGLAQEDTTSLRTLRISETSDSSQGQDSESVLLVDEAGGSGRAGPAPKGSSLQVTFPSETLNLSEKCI
Sequence of Prostacyclin receptor (P43119 whole entry): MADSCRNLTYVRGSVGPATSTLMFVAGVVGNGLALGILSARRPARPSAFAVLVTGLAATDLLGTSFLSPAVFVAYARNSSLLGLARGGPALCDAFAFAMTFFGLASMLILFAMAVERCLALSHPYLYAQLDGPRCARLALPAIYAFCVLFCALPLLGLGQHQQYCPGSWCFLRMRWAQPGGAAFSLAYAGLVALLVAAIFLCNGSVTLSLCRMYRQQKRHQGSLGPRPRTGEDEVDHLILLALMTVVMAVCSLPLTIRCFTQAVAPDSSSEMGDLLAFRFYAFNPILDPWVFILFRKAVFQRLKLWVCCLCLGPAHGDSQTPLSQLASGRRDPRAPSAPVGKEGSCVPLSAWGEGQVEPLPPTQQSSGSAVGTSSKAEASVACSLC
Sequence of Prostaglandin F2-alpha receptor (P43088 whole entry): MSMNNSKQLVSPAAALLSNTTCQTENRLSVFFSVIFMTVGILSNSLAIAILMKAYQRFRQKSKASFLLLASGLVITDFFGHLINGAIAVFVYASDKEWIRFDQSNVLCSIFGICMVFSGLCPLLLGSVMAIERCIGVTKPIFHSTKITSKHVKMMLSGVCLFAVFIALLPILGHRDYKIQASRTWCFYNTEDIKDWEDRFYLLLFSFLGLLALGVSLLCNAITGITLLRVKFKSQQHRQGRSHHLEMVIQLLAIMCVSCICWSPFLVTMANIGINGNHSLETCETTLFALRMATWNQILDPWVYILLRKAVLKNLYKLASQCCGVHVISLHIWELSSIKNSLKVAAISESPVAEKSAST

Regarding `CCCCC[C@H](O)/C=C/C1[C@@H](C/C=C\CCCC(=O)O)[C@H]2CO[C@@H]1C2` (stereo partly specified) [U46619], the Ki was > 10 µM in assay [1]; 0.035 µM in assay [2]; > 10 µM in assay [3]; > 10 µM at Prostacyclin receptor; 0.241 µM in assay [4]; 2.01 µM in assay [5]. Besides, the Ki in assay [6] is 3.97 µM; in assay [7], > 10 µM.

Take `O=C(O)CCC/C=C\C[C@H]1[C@@H]2CCC(O2)[C@H]1CNNC(=O)Nc1ccccc1` [SQ 29548]: the Ki in assay [1] is > 10 µM; in assay [2] it was 0.0041 µM; in assay [3] it was > 10 µM; on Prostacyclin receptor it was > 10 µM; in assay [4], > 10 µM; in assay [5] it was > 10 µM. Further, the Ki in assay [6] and in assay [7] was > 10 µM throughout.

For `COC(=O)CCC=C=CCC1C(=O)CC(O)C1C=CC(O)COc1ccccc1` (stereo unspecified) [NSC_5282207], the Ki is 0.082 µM in assay [1]; > 10 µM in assay [2]; > 10 µM in assay [3]; > 10 µM on Prostacyclin receptor; 0.088 µM in assay [4]; > 10 µM in assay [5]. Further, the results for the Ki in assay [6] and in assay [7] were > 10 µM and 0.012 µM, respectively.

Regarding `CCCC1([C@@H](O)C/C=C/C2[C@H](O)CC(=O)[C@@H]2CCCCCCC(=O)OC)CCC1` (stereo partly specified) [Butaprost (Methyl Ester)], the Ki is > 10 µM in assay [1]; > 10 µM in assay [2]; 3.51 µM in assay [3]; > 10 µM on Prostacyclin receptor; > 10 µM in assay [4]; > 10 µM in assay [5]. Besides, the Ki in assay [6] and in assay [7] was > 10 µM throughout.

Turning to `CCC#CCC(C)C(O)C#CC1C(O)CC2CC(=CCOCC(=O)O)CC21` (stereo unspecified) [CAS_94079-80-8], the inhibition constant Ki in assay [1] was determined as 1.34 µM; in assay [2], 1.34 µM; in assay [3] it was 1.34 µM; on Prostacyclin receptor, 0.017 µM; in assay [4], 1.34 µM; in assay [5] it was 0.044 µM. For the same molecule, the Ki in assay [6] came to 1.34 µM; in assay [7] it was 0.255 µM.

Regarding `CS(=O)(=O)NC(=O)CCCC=CCC1C(=O)CC(O)C1C=CC(O)COc1ccccc1` (stereo unspecified) [CAS_60325-46-4], the Ki in assay [1] was 0.107 µM; in assay [2] it was > 10 µM; in assay [3], > 10 µM; at Prostacyclin receptor, > 10 µM; in assay [4] it was 0.198 µM; in assay [5] it was 7.74 µM. The figures for the Ki in assay [6] and in assay [7] were > 10 µM and 0.00035 µM, respectively.

For the molecule `CCCCC(C)(O)CC=CC1C(O)CC(=O)C1CCCCCCC(=O)OC` (stereo unspecified) [MISOPROSTOL (Methyl Ester)], the Ki is > 10 µM in assay [1]; > 10 µM in assay [2]; > 10 µM in assay [3]; > 10 µM on Prostacyclin receptor; > 10 µM in assay [4]; 5.5 µM in assay [5]. Besides, the values for the Ki in assay [6] and in assay [7] were > 10 µM and 0.319 µM, respectively.
